Assay results: ChEMBL document CHEMBL3885881, “DrugMatrix”

Species on record: Rattus norvegicus
Assay: DrugMatrix - Regimen: Daily Repeat
Assay type: toxicity, organism-based, Sprague-Dawley
Parameters: regimen Daily Repeat, gender Male, age 6-8 weeks
Details: in vivo, po, route oral GAVAGE, […]; for ABSOLUTE BASOPHIL / ABSOLUTE EOSINOPHIL / ABSOLUTE LYMPHOCYTE / ABSOLUTE MONOCYTE / ABSOLUTE SEGMENTED NEUTROPHIL / BASOPHIL / EOSINOPHIL / ERYTHROCYTE COUNT / HEMATOCRIT / HEMOGLOBIN / LEUKOCYTE COUNT / LYMPHOCYTE / MEAN CORPUSCULAR HEMOGLOBIN / MEAN CORPUSCULAR HEMOGLOBIN CONCENTRATION / MEAN CORPUSCULAR VOLUME / MONOCYTE / NEUTROPHIL / NUCLEATED RED BLOOD CELLS / PLATELET COUNT: tissue Blood; for ALANINE AMINOTRANSFERASE / ALBUMIN / ALKALINE PHOSPHATASE / ASPARTATE AMINOTRANSFERASE / BLOOD UREA NITROGEN / CARBON DIOXIDE / CHLORIDE / CHOLESTEROL / CREATINE PHOSPHOKINASE / CREATININE / GLUCOSE / LACTATE DEHYDROGENASE / LIPASE / PHOSPHORUS / POTASSIUM / SODIUM / TOTAL BILIRUBIN / TOTAL PROTEIN / URIC ACID: tissue Plasma
[1] = 81 mg/kg, 72 h, dose level High, time 3 day
[2] = 81 mg/kg, 120 h, dose level High, time 5 day
[3] = 72 h, dose 8.1 mg/Kg, dose level Low, time 3 day
[4] = 120 h, dose 8.1 mg/Kg, dose level Low, time 5 day

For Nc1ccc(Cc2ccc(N)cc2)cc1, the “ABSOLUTE BASOPHIL” value [1] was 0 CELLS/uL, the “ABSOLUTE EOSINOPHIL” value [1] was 75.33 CELLS/uL and the “ABSOLUTE LYMPHOCYTE” value [1] was 15902.67 CELLS/uL. For the same compound, the “ABSOLUTE MONOCYTE” value [1] was 589 CELLS/uL, the “ABSOLUTE SEGMENTED NEUTROPHIL” value [1] was 3066.33 CELLS/uL and the BASOPHIL [1] was 0%. For the same compound, the EOSINOPHIL [1] was 0.33%, the “ERYTHROCYTE COUNT” value [1] was 5.52 x10E6/uL and the HEMATOCRIT [1] was 34.27%. For the same compound, the HEMOGLOBIN [1] was 13.27 G/DL, the “LEUKOCYTE COUNT” value [1] was 19.63 x10E3/uL and the LYMPHOCYTE [1] was 81.33%. The “MEAN CORPUSCULAR HEMOGLOBIN” value [1] was 24.13 pg, the “MEAN CORPUSCULAR HEMOGLOBIN CONCENTRATION” value [1] was 38.83 G/DL and the “MEAN CORPUSCULAR VOLUME” value [1] was 62.2 fL. For the same compound, the MONOCYTE [1] was 3%, the NEUTROPHIL [1] was 15.33% and the “NUCLEATED RED BLOOD CELLS” value [1] was 0.33 /100WBC. The “PLATELET COUNT” value [1] was 1017.33 x10E3/uL, the “ALANINE AMINOTRANSFERASE” value [1] was 253.67 u/L and the ALBUMIN [1] was 3.4 G/DL. The “ALKALINE PHOSPHATASE” value [1] was 742 u/L, the “ASPARTATE AMINOTRANSFERASE” value [1] was 450.67 u/L and the “BLOOD UREA NITROGEN” value [1] was 10.67 mg/dL. The “CARBON DIOXIDE” value [1] was 24.33 mmol/L, the CHLORIDE [1] was 102.33 MEQ/L and the CHOLESTEROL [1] was 143.67 mg/dL. For the same compound, the “CREATINE PHOSPHOKINASE” value [1] was 1027.33 u/L, the CREATININE [1] was 0.14 mg/dL and the GLUCOSE [1] was 152 mg/dL. For the same compound, the “LACTATE DEHYDROGENASE” value [1] was 723.67 u/L, the LIPASE [1] was 11 u/L and the PHOSPHORUS [1] was 11.77 mg/dL. The POTASSIUM [1] was 5.87 MEQ/L, the SODIUM [1] was 142.6 MEQ/L and the “TOTAL BILIRUBIN” value [1] was 0.9 mg/dL. For the same compound, the “TOTAL PROTEIN” value [1] was 5.13 G/DL, the “URIC ACID” value [1] was 1.27 mg/dL and the “ABSOLUTE BASOPHIL” value [2] was 0 CELLS/uL. For the same compound, the “ABSOLUTE EOSINOPHIL” value [2] was 0 CELLS/uL, the “ABSOLUTE LYMPHOCYTE” value [2] was 23023 CELLS/uL and the “ABSOLUTE MONOCYTE” value [2] was 1729.67 CELLS/uL. For the same compound, the “ABSOLUTE SEGMENTED NEUTROPHIL” value [2] was 3714 CELLS/uL, the BASOPHIL [2] was 0% and the EOSINOPHIL [2] was 0%. The “ERYTHROCYTE COUNT” value [2] was 5.81 x10E6/uL, the HEMATOCRIT [2] was 34.63% and the HEMOGLOBIN [2] was 13.53 G/DL. For the same compound, the “LEUKOCYTE COUNT” value [2] was 28.47 x10E3/uL, the LYMPHOCYTE [2] was 81% and the “MEAN CORPUSCULAR HEMOGLOBIN” value [2] was 23.33 pg. For the same compound, the “MEAN CORPUSCULAR HEMOGLOBIN CONCENTRATION” value [2] was 39.1 G/DL, the “MEAN CORPUSCULAR VOLUME” value [2] was 59.67 fL and the MONOCYTE [2] was 6%. For the same compound, the NEUTROPHIL [2] was 13%, the “NUCLEATED RED BLOOD CELLS” value [2] was 0 /100WBC and the “PLATELET COUNT” value [2] was 1124.33 x10E3/uL. For the same compound, the “ALANINE AMINOTRANSFERASE” value [2] was 131.67 u/L, the ALBUMIN [2] was 3.4 G/DL and the “ALKALINE PHOSPHATASE” value [2] was 589 u/L. For the same compound, the “ASPARTATE AMINOTRANSFERASE” value [2] was 255.33 u/L, the “BLOOD UREA NITROGEN” value [2] was 14 mg/dL and the “CARBON DIOXIDE” value [2] was 28.33 mmol/L. The CHLORIDE [2] was 101.67 MEQ/L, the CHOLESTEROL [2] was 138.33 mg/dL and the “CREATINE PHOSPHOKINASE” value [2] was 541 u/L. The CREATININE [2] was 0.23 mg/dL, the GLUCOSE [2] was 138.33 mg/dL and the “LACTATE DEHYDROGENASE” value [2] was 636.33 u/L. The LIPASE [2] was 11.67 u/L, the PHOSPHORUS [2] was 9.3 mg/dL and the POTASSIUM [2] was 5.58 MEQ/L. The SODIUM [2] was 142.97 MEQ/L, the “TOTAL BILIRUBIN” value [2] was 0.83 mg/dL and the “TOTAL PROTEIN” value [2] was 5.7 G/DL. The “URIC ACID” value [2] was 1.2 mg/dL, the “ABSOLUTE BASOPHIL” value [3] was 0 CELLS/uL and the “ABSOLUTE EOSINOPHIL” value [3] was 0 CELLS/uL. The “ABSOLUTE LYMPHOCYTE” value [3] was 10998 CELLS/uL, the “ABSOLUTE MONOCYTE” value [3] was 210.33 CELLS/uL and the “ABSOLUTE SEGMENTED NEUTROPHIL” value [3] was 1658.33 CELLS/uL. The BASOPHIL [3] was 0%, the EOSINOPHIL [3] was 0% and the “ERYTHROCYTE COUNT” value [3] was 5.48 x10E6/uL. For the same compound, the HEMATOCRIT [3] was 34.13%, the HEMOGLOBIN [3] was 13.5 G/DL and the “LEUKOCYTE COUNT” value [3] was 12.87 x10E3/uL. For the same compound, the LYMPHOCYTE [3] was 85.67%, the “MEAN CORPUSCULAR HEMOGLOBIN” value [3] was 24.7 pg and the “MEAN CORPUSCULAR HEMOGLOBIN CONCENTRATION” value [3] was 39.6 G/DL. The “MEAN CORPUSCULAR VOLUME” value [3] was 62.3 fL, the MONOCYTE [3] was 1.67% and the NEUTROPHIL [3] was 12.67%. For the same compound, the “NUCLEATED RED BLOOD CELLS” value [3] was 0 /100WBC, the “PLATELET COUNT” value [3] was 1052.33 x10E3/uL and the “ALANINE AMINOTRANSFERASE” value [3] was 74.67 u/L. The ALBUMIN [3] was 3.93 G/DL, the “ALKALINE PHOSPHATASE” value [3] was 451 u/L and the “ASPARTATE AMINOTRANSFERASE” value [3] was 94.33 u/L. For the same compound, the “BLOOD UREA NITROGEN” value [3] was 12 mg/dL, the “CARBON DIOXIDE” value [3] was 24 mmol/L and the CHLORIDE [3] was 102.67 MEQ/L. The CHOLESTEROL [3] was 79 mg/dL, the “CREATINE PHOSPHOKINASE” value [3] was 294.67 u/L and the CREATININE [3] was 0.2 mg/dL. The GLUCOSE [3] was 157.33 mg/dL, the “LACTATE DEHYDROGENASE” value [3] was 177 u/L and the LIPASE [3] was 12.33 u/L. It also gave a PHOSPHORUS [3] of 12.33 mg/dL, a POTASSIUM [3] of 5.95 MEQ/L and an SODIUM [3] of 143.97 MEQ/L. For the same compound, the “TOTAL BILIRUBIN” value [3] was 0.17 mg/dL, the “TOTAL PROTEIN” value [3] was 5.47 G/DL and the “URIC ACID” value [3] was 1.27 mg/dL. For the same compound, the “ABSOLUTE BASOPHIL” value [4] was 0 CELLS/uL, the “ABSOLUTE EOSINOPHIL” value [4] was 0 CELLS/uL and the “ABSOLUTE LYMPHOCYTE” value [4] was 11058.67 CELLS/uL. The “ABSOLUTE MONOCYTE” value [4] was 46 CELLS/uL, the “ABSOLUTE SEGMENTED NEUTROPHIL” value [4] was 1295.33 CELLS/uL and the BASOPHIL [4] was 0%. For the same compound, the EOSINOPHIL [4] was 0%, the “ERYTHROCYTE COUNT” value [4] was 5.5 x10E6/uL and the HEMATOCRIT [4] was 34.53%. The HEMOGLOBIN [4] was 13.8 G/DL, the “LEUKOCYTE COUNT” value [4] was 12.4 x10E3/uL and the LYMPHOCYTE [4] was 89.67%. For the same compound, the “MEAN CORPUSCULAR HEMOGLOBIN” value [4] was 25.13 pg, the “MEAN CORPUSCULAR HEMOGLOBIN CONCENTRATION” value [4] was 39.97 G/DL and the “MEAN CORPUSCULAR VOLUME” value [4] was 62.83 fL. The MONOCYTE [4] was 0.33%, the NEUTROPHIL [4] was 10% and the “NUCLEATED RED BLOOD CELLS” value [4] was 0 /100WBC. The “PLATELET COUNT” value [4] was 1265 x10E3/uL, the “ALANINE AMINOTRANSFERASE” value [4] was 63.67 u/L and the ALBUMIN [4] was 4.2 G/DL. For the same compound, the “ALKALINE PHOSPHATASE” value [4] was 474 u/L, the “ASPARTATE AMINOTRANSFERASE” value [4] was 88.67 u/L and the “BLOOD UREA NITROGEN” value [4] was 11.33 mg/dL. For the same compound, the “CARBON DIOXIDE” value [4] was 35.33 mmol/L, the CHLORIDE [4] was 100.33 MEQ/L and the CHOLESTEROL [4] was 59.33 mg/dL. The “CREATINE PHOSPHOKINASE” value [4] was 280.67 u/L, the CREATININE [4] was 0.16 mg/dL and the GLUCOSE [4] was 138.67 mg/dL. For the same compound, the “LACTATE DEHYDROGENASE” value [4] was 317.67 u/L, the LIPASE [4] was 10.67 u/L and the PHOSPHORUS [4] was 10.57 mg/dL. For the same compound, the POTASSIUM [4] was 6.26 MEQ/L, the SODIUM [4] was 144.83 MEQ/L and the “TOTAL BILIRUBIN” value [4] was 0.2 mg/dL. For the same compound, the “TOTAL PROTEIN” value [4] was 5.93 G/DL and the “URIC ACID” value [4] was 1.4 mg/dL.
